Test results published in ChEMBL document CHEMBL5046267, “Discovery of N-Trisubstituted Pyrimidine Derivatives as Type I RET and RET Gatekeeper Mutant Inhibitors with a Novel Kinase Binding Pose” (J Med Chem, 2022).
Calls of active or inactive are those of the source. The calls are words filed in the database; no cut-off is given here.

What was measured:
HEK293T [1] = test: Inhibition of autophosphorylation of NCOA4-RET V804M mutant (unknown origin) transfected HEK293T cells assessed as inhibition of autophosphorylation of RET at 100 to 2500 nM measured after 2 hrs by Western blotting analysis; type: cell-based; conditions: Homo sapiens, dose 100-2500 nM
HEK293T [2] = test: Inhibition of autophosphorylation of human NCOA4-RET G810R mutant transfected HEK293T cells assessed as inhibition of autophosphorylation of RET at 100 to 2500 nM measured after 2 hrs by Western blotting analysis; type: cell-based; conditions: dose 100-2500 nM

| SMILES | inhibition (HEK293T [1]) | inhibition (HEK293T [2]) |
| --- | --- | --- |
| Cc1cc(Nc2cc(N3CCN(C)CC3)nc(Nc3ccc(CC(=O)Nc4ccc(F)cc4)cc3)n2)[nH]n1 | Active | inactive |
| Cc1cc(Nc2cc(N3CCN(C)CC3)nc(Nc3ccc(CC(=O)Nc4ccc(C(C)C)cc4)cc3)n2)[nH]n1 | Active | inactive |
| Cc1cc(Nc2cc(N3CCN(C)CC3)nc(Nc3ccc(CC(=O)Nc4cccc(F)c4)cc3)n2)[nH]n1 | Active | inactive |
| CCN1CCN(c2cc(Nc3cc(C)n[nH]3)nc(Nc3ccc(CC(=O)NCc4cccc(F)c4)cc3)n2)CC1 | Active | inactive |
